Like-named read-outs stand apart in the source and are kept apart here.
System: MV4:11 human cancer cell lines
Test: Cellular viability / anti-proliferative activity, CellTiter-Glo, 5 day protocol
Format: cell-based
Settings: MV4:11 cells, 5 day incubation, CellTiter-Glo, mean of minimum two replicates, read-out: GI50 on cellular proliferation of MV4:11 human cancer cell lines
How it was run: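 Compounds were tested over 22 two-fold dilutions starting at 30 μM in 0.3% DMSO, with 200 cells per well (7200 cells/mL). Viability was measured by CellTiter-Glo luminescence at day 5.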

SMILES | GI50 (Homo sapiens, MV4-11, 120 h) [nM] | GI50 [nM]
Cc1cc(CN2CCc3c(cc(Cn4ccnc4C)cc3-c3cn(C)nc3C(F)(F)F)C2=O)cnc1Cl [Example 213, 2-((6-Chloro-5-methylpyridin-3-yl)methyl)-7-((2-methyl-1H-imidazol-1-yl)methyl)-5-(1-methyl-3-(trifluoromethyl)-1H-pyrazol-4-yl)-3,4-dihydroisoquinolin-1(2H)-one] | < 50 | 
CCc1ccc(OCC(=O)NCc2cccnc2)c(CN2CCc3c(cc(Cn4ccnc4C)cc3-c3cn(C)nc3C(F)(F)F)C2=O)c1 [Example 215, 2-(4-Ethyl-2-((7-((2-methyl-1H-imidazol-1-yl)methyl)-5-(1-methyl-3-(trifluoromethyl)-1H-pyrazol-4-yl)-1-oxo-3,4-dihydroisoquinolin-2(19)-yl)methyl)phenoxy)-N-(pyridin-3-ylmethyl)acetamide] | 168 | 
Cc1nccn1Cc1cc2c(c(-c3cn(C)nc3C(F)(F)F)c1)CCN(Cc1cc(Br)cc3c1OCC3)C2=O [Example 216, 2-((5-Bromo-2,3-dihydrobenzofuran-7-yl)methyl)-7-((2-methyl-1H-imidazol-1-yl)methyl)-5-(1-methyl-3-(trifluoromethyl)-1H-pyrazol-4-yl)-3,4-dihydroisoquinolin-1(2H)-one] | 56 | 
CCc1ccc(OC)c(CN2CCc3c(cc(Cn4ccnc4C)cc3-c3cn(C)nc3C(F)(F)F)C2=O)c1 [Example 217, 2-(5-Ethyl-2-methoxybenzyl)-7-((2-methyl-1H-imidazol-1-yl)methyl)-5-(1-methyl-3-(trifluoromethyl)-1H-pyrazol-4-yl)-3,4-dihydroisoquinolin-1(2H)-one] | 149 | 
Cc1cc2c(c(CN3CCc4c(cc(Cn5ccnc5C)cc4-c4cn(C)nc4C(F)(F)F)C3=O)c1)OCC2 [Example 218, 7-((2-Methyl-1H-imidazol-1-yl)methyl)-2-((5-methyl-2,3-dihydrobenzofuran-7-yl)methyl)-5-(1-methyl-3-(trifluoromethyl)-1H-pyrazol-4-yl)-3,4-dihydroisoquinolin-1(2H)-one] | < 50 | 
Cc1ccc2[nH]ncc2c1-c1cc(CN2CCc3c(cc(Cn4ccnc4C)cc3-c3cn(C)nc3C(F)(F)F)C2=O)cc(OC(F)(F)F)c1 [Example 220, 7-((2-Methyl-1H-imidazol-1-yl)methyl)-2-(3-(5-methyl-1H-indazol-4-yl)-5-(trifluoromethoxy)benzyl)-5-(1-methyl-3-(trifluoromethyl)-1H-pyrazol-4-yl)-3,4-dihydroisoquinolin-1(2H)-one] | 1940 | 
Cc1nccn1Cc1cc2c(c(-c3cn(C)nc3C(F)(F)F)c1)CCN(Cc1cccc(C(F)(F)F)c1)C2=O [Example 221, 7-((2-Methyl-1H-imidazol-1-yl)methyl)-5-(1-methyl-3-(trifluoromethyl)-1H-pyrazol-4-yl)-2-(3-(trifluoromethyl)benzyl)-3,4-dihydroisoquinolin-1(2H)-one] | 421 | 
Cc1cnc(Cl)c(CN2CCc3c(cc(Cn4ccnc4C)cc3-c3cn(C)nc3C(F)(F)F)C2=O)c1 [Example 223, 2-((2-Chloro-5-methylpyridin-3-yl)methyl)-7-((2-methyl-1H-imidazol-1-yl)methyl)-5-(1-methyl-3-(trifluoromethyl)-1H-pyrazol-4-yl)-3,4-dihydroisoquinolin-1(2H)-one] | < 50 | 
COc1ccnc([C@H](C)N2CCc3c(cc(Cn4ccnc4C)cc3-c3ccncc3C)C2=O)c1 [Example 224, (S)-2-(1-(4-Methoxypyridin-2-yl)ethyl)-7-((2-methyl-1H-imidazol-1-yl)methyl)-5-(3-methylpyridin-4-yl)-3,4-dihydroisoquinolin-1(2H)-one] | 72 | 
Cc1nccn1Cc1cc2c(c(-c3cn(C)nc3C(F)(F)F)c1)CCN(Cc1cc(Cl)cc3ccccc13)C2=O [Example 225, 2-((3-Chloronaphthalen-1-yl)methyl)-7-((2-methyl-1H-imidazol-1-yl)methyl)-5-(1-methyl-3-(trifluoromethyl)-1H-pyrazol-4-yl)-3,4-dihydroisoquinolin-1(2H)-one] | 195 | 
Cc1nccn1Cc1cc2c(c(-c3cn(C)nc3C(F)(F)F)c1)CCN(Cc1cccc(Cl)c1)C2=O [Example 226, 2-(3-Chlorobenzyl)-7-((2-methyl-1H-imidazol-1-yl)methyl)-5-(1-methyl-3-(trifluoromethyl)-1H-pyrazol-4-yl)-3,4-dihydroisoquinolin-1(2H)-one] | 950 | 
COc1cc(CN2CCc3c(cc(Cn4cnc5ccccc54)cc3-c3ccc(F)cc3C)C2=O)cc(OC)c1 [Example 227] | 7450 | 
COc1cncc(CN2CCc3c(cc(Cn4ccnc4C)cc3-c3cn(C)nc3C(F)(F)F)C2=O)c1 [Example 228, 2-((5-Methoxypyridin-3-yl)methyl)-7-((2-methyl-1H-imidazol-1-yl)methyl)-5-(1-methyl-3-(trifluoromethyl)-1H-pyrazol-4-yl)-3,4-dihydroisoquinolin-1(2H)-one] | < 50 | 
COc1ccnc(CN2CCc3c(cc(Cn4ccnc4C)cc3-c3cc(F)cnc3C)C2=O)c1 [Example 229, 5-(5-Fluoro-2-methylpyridin-3-yl)-2-((4-methoxypyridin-2-yl)methyl)-7-((2-methyl-1H-imidazol-1-yl)methyl)-3,4-dihydroisoquinolin-1(2H)-one] | 1050 | 
CCn1cc(-c2cc(Cc3ncc[nH]3)cc3c2CCN([C@@H](C)c2cc(OC)ccn2)C3=O)c(C(F)(F)F)n1 [Example 230, (S)-7-((1H-Imidazol-2-yl)methyl)-5-(1-ethyl-3-(trifluoromethyl)-1H-pyrazol-4-yl)-2-(1-(4-methoxypyridin-2-yl)ethyl)-3,4-dihydroisoquinolin-1(2H)-one] | < 50 | 
Cc1nccn1Cc1cc2c(c(-c3cn(C)nc3C(F)(F)F)c1)CCN(Cc1cccc(-c3ccsc3)c1)C2=O [Example 231, 7-((2-Methyl-1H-imidazol-1-yl)methyl)-5-(1-methyl-3-(trifluoromethyl)-1H-pyrazol-4-yl)-2-(3-(thiophen-3-yl)benzyl)-3,4-dihydroisoquinolin-1(2H)-one] | 550 | 
Cc1cnnc(CN2CCc3c(cc(Cn4ccnc4C)cc3-c3cn(C)nc3C(F)(F)F)C2=O)c1 [Example 232, 7-((2-Methyl-1H-imidazol-1-yl)methyl)-5-(1-methyl-3-(trifluoromethyl)-1H-pyrazol-4-yl)-2-((5-methylpyridazin-3-yl)methyl)-3,4-dihydroisoquinolin-1(2H)-one] | 199 | 
Cc1nccn1Cc1cc2c(c(-c3cn(C)nc3C(F)(F)F)c1)CCN(Cc1ccccc1)C2=O [Example 233, 2-Benzyl-7-((2-methyl-1H-imidazol-1-yl)methyl)-5-(1-methyl-3-(trifluoromethyl)-1H-pyrazol-4-yl)-3,4-dihydroisoquinolin-1(2H)-one] | 748 | 
Cc1nccn1Cc1cc2c(c(-c3cn(C)nc3C(F)(F)F)c1)CCN(Cc1cccc(C3CC3)c1)C2=O [Example 234, 2-(3-Cyclopropylbenzyl)-7-((2-methyl-1H-imidazol-1-yl)methyl)-5-(1-methyl-3-(trifluoromethyl)-1H-pyrazol-4-yl)-3,4-dihydroisoquinolin-1(2H)-one] | 283 | 
C=Cc1cccc(CN2CCc3c(cc(Cn4ccnc4C)cc3-c3cn(C)nc3C(F)(F)F)C2=O)c1 [Example 235, 7-((2-Methyl-1H-imidazol-1-yl)methyl)-5-(1-methyl-3-(trifluoromethyl)-1H-pyrazol-4-yl)-2-(3-vinylbenzyl)-3,4-dihydroisoquinolin-1(2H)-one] | 199 | 
Cc1nccn1Cc1cc2c(c(-c3cn(C)nc3C(F)(F)F)c1)CCN(Cc1cc(Br)cc3[nH]ccc13)C2=O [Example 236, 2-((6-Bromo-1H-indol-4-yl)methyl)-7-((2-methyl-1H-imidazol-1-yl)methyl)-5-(1-methyl-3-(trifluoromethyl)-1H-pyrazol-4-yl)-3,4-dihydroisoquinolin-1(2H)-one] | 121 | 
COc1ccnc([C@H](C)N2CCc3c(cc(Cn4ccnc4C)cc3-c3c[nH]nc3C(F)(F)F)C2=O)c1 [Example 237, (S)-2-(1-(4-methoxypyridin-2-yl)ethyl)-7-((2-methyl-1H-imidazol-1-yl)methyl)-5-(3-(trifluoromethyl)-1H-pyrazol-4-yl)-3,4-dihydroisoquinolin-1(2H)-one] | < 50 | 
COc1ccnc([C@H](C)N2CCc3c(cc(Cn4ccnc4C)cc3-c3c[nH]nc3C)C2=O)c1 [Example 238, (S)-2-(1-(4-methoxypyridin-2-yl)ethyl)-7-((2-methyl-1H-imidazol-1-yl)methyl)-5-(3-methyl-1H-pyrazol-4-yl)-3,4-dihydroisoquinolin-1(2H)-one] | 227 | 
Cc1nccn1Cc1cc2c(c(-c3cn(C)nc3C(F)(F)F)c1)CCN([C@@H](C)c1cc(C3CC3)nn1C)C2=O [Example 239, (S)-2-(1-(3-Cyclopropyl-1-methyl-1H-pyrazol-5-yl)ethyl)-7-((2-methyl-1H-imidazol-1-yl)methyl)-5-(1-methyl-3-(trifluoromethyl)-1H-pyrazol-4-yl)-3,4-dihydroisoquinolin-1(2H)-one] | 573 | 
Cc1cc(CN2CCc3c(cc(Cn4ccnc4C)cc3-c3cn(C)nc3C(F)(F)F)C2=O)cnc1C [Example 241, 2-((5,6-Dimethylpyridin-3-yl)methyl)-7-((2-methyl-1H-imidazol-1-yl)methyl)-5-(1-methyl-3-(trifluoromethyl)-1H-pyrazol-4-yl)-3,4-dihydroisoquinolin-1(2H)-one] | < 50 | 
Cc1cc(CN2CCc3c(cc(Cn4ccnc4C)cc3-c3cn(C)nc3C(F)(F)F)C2=O)cnc1Cl [Example 242, 2-((6-Chloro-5-methylpyridin-3-yl)methyl)-7-((2-methyl-1H-imidazol-1-yl)methyl)-5-(1-methyl-3-(trifluoromethyl)-1H-pyrazol-4-yl)-3,4-dihydroisoquinolin-1(2H)-one] |  | 50

— patent US11999716B2, “WDR5 inhibitors and modulators” (priority 2018, dated 2024)
